Data from paper PMC5441103, “Antiviral activity of phenanthrenes from the medicinal plant Bletilla striata against influenza A virus” (BMC Complementary and Alternative Medicine, 2017).
Several values for one entry are separate records, joined by “and”; a condition that tells them apart may be missing. Identical values can stand only once. Like-named read-outs stand apart in the source and are kept apart here.

How the values were obtained:
neuraminidase (NA) = neuraminidase (NA) (Influenza A virus, UniProt Q80DL0); details: for IC50: read-out: NA inhibitory activity IC50
Method: The neuraminidase inhibition assay was used to evaluate the effects of each compound on the neuraminidase activity of the influenza virus, according to the instructions of the Neuraminidase Inhibitors Screen Kit (Beyotime, China). Inhibition = [(C− S) / (C − C 0)] × 100%, where C is the fluorescence of the control (enzyme, buffer, and substrate) after 30 min of incubation, and C 0 is the fluorescence of the control (buffer and substrate). S is the fluorescence of the tested samples (enzyme, sample solution, and substrate) after incubation. Standard curves were made by plotting the percentage of fluorescence inhibition relative to the activity of virus controls against the log2 of concentrations. In addition, 10 μg/mL oseltamivir phosphate was used as the positive control. Then, 10 μL of NA in 70 μL of reaction buffer was mixed with equal volumes of twofold dilutions of the compounds. After a 2-min incubation at 37 °C, equal volumes (10 μL) of the substrate solution [2-(4-methylumbelliferyl)-α-D-N-acetylneuraminic acid sodium (4-MU-NANA)] were added, and the mixtures were further incubated for 30 min at 37 °C. The fluorescence intensity was measured using a fluorescence plate reader at an excitation wavelength of 322 nm and an emission wavelength of 450 nm. The 50% inhibitory concentration (IC50) was calculated by regression analysis with r ^2 ≥ 0.9, representing the mean values of three independent experiments [13, 29].

MDCK cells = experiment: Cytotoxicity to MDCK cells (MTS-based assay); type: cell-based, canine; details: 48 h, read-out: CC50 (50% cytotoxic concentration)
Method: (§1) An MTS-based assay was performed to evaluate the cytotoxic effects of the test compounds on MDCK cells. Approximately 5 × 10^4 cells/well were seeded in 96-well microplates in MEM with 10% FBS at 37 °C in a humidified 5% CO2 incubator. When the monolayer was confluent, the cells were washed twice with PBS and then treated with compounds diluted in serum-free MEM. After incubation at 37 °C for 48 h, 20 μL of MTS was added to each well, and the cells were incubated for 2 h. The absorbance at 490 nm was determined using a microplate reader. The cell viability was calculated using the following formula: cell viability (%) = (drug treatment – background)/(control – background) × 100%. The half-maximal cytotoxic concentration (CC50) of the compounds was defined as the concentration that reduced the A490 of compound-treated cells to 50% of that of untreated cells.

[1] = system: influenza viral matrix protein mRNA; type: cell-based, influenza virus
[2] = system: influenza A/Sydney/5/97 (H3N2)
[3] = system: influenza virus A/Sydney/5/97 (H3N2); type: in vivo; details: for -log2 HA titer (mean ± SD): 9-day-old embryonated hen eggs, 100 EID50, 34 °C 48 h, allantoic fluid
[4] = system: influenza A/Sydney/5/97 (H3N2); experiment: microbe, parasite or virus in culture; details: H3N2, MDCK
[5] = Cytotoxicity to MDCK cells (MTS-based assay); type: cell-based, canine; details: dog, read-out: CC50 (50% cytotoxic concentration)
Method: as §1

[6] = system: influenza A/Sydney/5/97 (H3N2); experiment: in vitro; details: dog, MDCK cells
hemagglutinin (HA) = experiment: Hemagglutination inhibition assay (guinea pig RBC); details: 4 HAU virus, 1.5% guinea pig RBC
Method: The hemagglutination inhibition assay was used to study whether the compound could block the SA-containing receptors. The phenanthrenes from B. striata and oseltamivir phosphate were all tested Fresh guinea pig blood was collected at the Laboratory Animal Research Center of the Zhejiang Chinese Medical University, supplemented with 1.6% sodium citrate in sterile water. Then, red blood cells (RBC) were separated by centrifugation (800×g for 10 min at room temperature), washed three times with sterile PBS, and then suspended at a concentration of 1.5%. The least number of virus particles able to agglutinate the guinea pig RBC was determined in a serial virus dilution as four hemagglutination units (HAU). PBS instead of the compounds was used as the hemagglutinating positive control and no-virus RBC as the hemagglutinating negative control. Then, 50 μL of the compounds in serial twofold dilutions in PBS were mixed with 50 μL of 4 HAU influenza virus suspension, incubated for 1 h at 37 °C, mixed with an equal volume of 1.5% guinea pig RBC suspension for 1 h at room temperature, and then monitored for agglutination [10, 11].

[7] = read-out: Simultaneous treatment IC50
[8] = 72 h, read-out: Simultaneous treatment IC50
[9] = Post-treatment SI (selective index; CC50mean/IC50mean), post-treatment
[10] = Simultaneous treatment SI (selective index; CC50mean/IC50mean), simultaneous treatment

## COc1cc(O)c2c(ccc3cc(O)ccc32)c1-c1c(OC)cc(O)c2c1ccc1cc(O)ccc12 [Compound 6, 4,4′,7,7′-tetrahydroxy-2,2′-dimethoxy-1,1′-di-phenanthrene]
Neuraminidase (NA)
  IC50: 16.1 ± 2.6 µM
MDCK cells
  CC50: 106 ± 21.2 µM
[1]
  Matrix protein mRNA transcription (normalized to GAPDH): stronger inhibitory effect
[2]
  Post-treatment SI (selective index; CC50mean/IC50mean): 2.8
  Simultaneous treatment SI (selective index; CC50mean/IC50mean): 3.1
[2]; read-out: Post-treatment IC50
  IC50: 37.3 ± 3.2 µM
[2]; [7]
  IC50: 33.8 ± 2.7 µM

## CCOC(=O)C1=C[C@@H](OC(CC)CC)[C@H](NC(C)=O)[C@@H](N)C1 [Oseltamivir, reference compound]
[3]; 0.01 mmol/egg
  -log2 HA titer (mean ± SD): 0.00 ± 0.00
[3]; 0.01 mmol/egg, embryonated hen eggs, 100 EID50, 48 h
  Inhibition (%): 100.00%
[4]; [8]
  IC50: 4.9 ± 0.9 µM
[4]; read-out: Post-treatment IC50
  IC50: 0.9 ± 0.2 µM
[5]
  CC50 at 48 h: 599 ± 62.1 µM
[6]; [9]
  selectivity ratio at 72 h: 665
[6]; [10]
  selectivity ratio at 72 h: 122
Hemagglutinin (HA)
  Inhibition of hemagglutination by the influenza virus: could not inhibit hemagglutination

## COc1cc(O)c2c(ccc3cc(O)ccc32)c1-c1c(OC)cc(O)c2c1ccc1c(OC)cccc12 [Compound 5, 4,4′,7′-trihydroxy-2,2′,8,-trimethoxy-1,1′-di-phenanthrene]
[3]; in vivo
  Inhibition (%): 0.00% and 6.90% and 3.45%
Neuraminidase (NA)
  NA inhibitory activity IC50: - (key: -: Inhibitory effect on the NA was less than 50%.)
MDCK cells
  CC50: 96.8 ± 15.6 µM
[2]
  Post-treatment IC50: - (The results showed that antiviral effects against A/Sydney/5/97(H3N2) were less than 50% inhibition)
  Simultaneous treatment IC50: - (The results showed that antiviral effects against A/Sydney/5/97(H3N2) were less than 50% inhibition)

## COc1cc(O)cc2c1-c1ccc(O)cc1CC2 [Compound 1, 2,7-dyhydroxyl-4-methoxy-9,10-dihydro-phenanthrene]
Neuraminidase (NA)
  IC50: 72.6 ± 6.5 µM
MDCK cells
  CC50: 201 ± 18.6 µM
[1]
  Matrix protein mRNA transcription (normalized to GAPDH): stronger inhibitory effect
[2]
  Post-treatment IC50: - (The results showed that antiviral effects against A/Sydney/5/97(H3N2) were less than 50% inhibition)
  Simultaneous treatment IC50: - (The results showed that antiviral effects against A/Sydney/5/97(H3N2) were less than 50% inhibition)

## COc1cc(O)c2c(c1)CCc1cccc(O)c1-2 [Compound 9, 4,5-dyhydroxyl-2-methoxy-9,10-dihydro-phenanthrene]
Neuraminidase (NA)
  NA inhibitory activity IC50: - (key: -: Inhibitory effect on the NA was less than 50%.)
MDCK cells
  CC50: 160 ± 20.4 µM
[1]
  Matrix protein mRNA transcription (normalized to GAPDH): stronger inhibitory effect
[2]
  Post-treatment IC50: - (The results showed that antiviral effects against A/Sydney/5/97(H3N2) were less than 50% inhibition)
  Simultaneous treatment IC50: - (The results showed that antiviral effects against A/Sydney/5/97(H3N2) were less than 50% inhibition)

## COc1ccc2c(ccc3c(-c4c(OC)cc(O)c5c4ccc4cc(O)ccc45)c(OC)cc(O)c32)c1 [Compound 7, 4,4′,7-trihydroxy-2,2′,7′-trimethoxy-1,1′-di-phenanthrene]
[3]; in vivo
  Inhibition (%): 0.00%
Neuraminidase (NA)
  NA inhibitory activity IC50: - (key: -: Inhibitory effect on the NA was less than 50%.)
MDCK cells
  CC50: 130 ± 15.6 µM
[1]
  Matrix protein mRNA transcription (normalized to GAPDH): stronger inhibitory effect
[2]
  Post-treatment SI (selective index; CC50mean/IC50mean): 4.1
  Simultaneous treatment SI (selective index; CC50mean/IC50mean): 4.5
[2]; read-out: Post-treatment IC50
  IC50: 31.2 ± 2.2 µM
[2]; [7]
  IC50: 28.5 ± 2.8 µM

## COc1ccc2c(ccc3cc(O)cc(OC)c32)c1 [Compound 10, 2-hydroxyl-4,7-dimethoxyphenanthrene]
[3]; 0.04 mmol/egg
  -log2 HA titer (mean ± SD): 6.00 ± 0.71
[3]; 0.04 mmol/egg, embryonated hen eggs, 100 EID50, 48 h
  Inhibition (%): 0.00%
[3]; 0.08 mmol/egg
  -log2 HA titer (mean ± SD): 3.20 ± 0.40
[3]; 0.08 mmol/egg, embryonated hen eggs, 100 EID50, 48 h
  Inhibition (%): 44.8% and 44.83%
[4]; [8]
  IC50: 43.3 ± 5.3 µM
[4]; read-out: Post-treatment IC50
  IC50: 42.3 ± 3.9 µM
[5]
  CC50 at 48 h: 142 ± 25 µM
[6]; [9]
  selectivity ratio at 72 h: 3.4
[6]; [10]
  selectivity ratio at 72 h: 3.3
[1]
  Matrix protein mRNA transcription (normalized to GAPDH): stronger inhibitory effect

## 2,2′–dyhydroxyl-4,4′,7,7′-9′,10′-dihydro-1,6′-di-phenanthrene [Compound 11]
[3]; in vivo
  Inhibition (%): 0.00%
[1]
  Matrix protein mRNA transcription (normalized to GAPDH): stronger inhibitory effect
[2]; read-out: Post-treatment IC50
  IC50: 35.2 ± 3.7 µM
[2]; [7]
  IC50: 38.6 ± 2.9 µM

## COc1cc(O)cc2ccc3cc(O)ccc3c12 [Compound 12, 2,7-dyhydroxyl-4-methoxyphenanthrene]
Neuraminidase (NA)
  NA inhibitory activity IC50: - (key: -: Inhibitory effect on the NA was less than 50%.)
MDCK cells
  CC50: 116 ± 16.8 µM
[2]
  Post-treatment IC50: - (The results showed that antiviral effects against A/Sydney/5/97(H3N2) were less than 50% inhibition)
  Simultaneous treatment IC50: - (The results showed that antiviral effects against A/Sydney/5/97(H3N2) were less than 50% inhibition)

## COc1cc(O)c2c(ccc3cc(O)ccc32)c1-c1c(OC)cc(O)c2c1ccc1c(OC)c(O)ccc12 [Compound 8, 4,4′,7,7′-tetrahydroxy-2,2′,8-trimethoxy-1,1′-di-phenanthrene]
Neuraminidase (NA)
  NA inhibitory activity IC50: - (key: -: Inhibitory effect on the NA was less than 50%.)
MDCK cells
  CC50: 111 ± 17.3 µM
[2]
  Post-treatment IC50: - (The results showed that antiviral effects against A/Sydney/5/97(H3N2) were less than 50% inhibition)
  Simultaneous treatment IC50: - (The results showed that antiviral effects against A/Sydney/5/97(H3N2) were less than 50% inhibition)

## COc1cc(O)c2c(ccc3c(OC)c(O)ccc32)c1-c1c(OC)cc(O)c2c1ccc1c(OC)c(O)ccc12 [Compound 4, 4,4′,7,7′-tetrahydroxy-2,2′,8,8′-tetramethoxy-1,1′-di-phenanthrene]
Neuraminidase (NA)
  IC50: 21.7 ± 2.9 µM
MDCK cells
  CC50: 80 ± 20.1 µM
[1]
  Matrix protein mRNA transcription (normalized to GAPDH): most efficient, even more powerful than oseltamivir
[2]
  Post-treatment SI (selective index; CC50mean/IC50mean): 4.3
  Simultaneous treatment SI (selective index; CC50mean/IC50mean): 5.5
[2]; read-out: Post-treatment IC50
  IC50: 18.4 ± 3.1 µM
[2]; [7]
  IC50: 14.6 ± 2.4 µM

## COc1ccc2c(ccc3c(-c4c(O)c(OC)cc5c4CCc4cc(O)cc(OC)c4-5)c(O)cc(OC)c32)c1 [Compound 3, 2,2′,7′-trihydroxy-3′,4,5′,7-tetramethoxy-9′,10′-dihydro-1,1′-di-phenanthrene]
Neuraminidase (NA)
  IC50: 16.8 ± 1.6 µM
MDCK cells
  CC50: 50.3 ± 6.2 µM
[1]
  Matrix protein mRNA transcription (normalized to GAPDH): stronger inhibitory effect
[2]
  Post-treatment SI (selective index; CC50mean/IC50mean): 2.2
  Simultaneous treatment SI (selective index; CC50mean/IC50mean): 2.5
[2]; read-out: Post-treatment IC50
  IC50: 22.6 ± 1.8 µM
[2]; [7]
  IC50: 20.4 ± 3.2 µM

## COc1ccc2c(ccc3c(-c4c(O)cc(OC)c5c4CCc4cc(O)ccc4-5)c(O)cc(OC)c32)c1 [Compound 2, 2,2,7′-trihydroxy-4,4′,7-trimethoxy-9′,10′-dihydro-1,1′-diphenanthrene]
Neuraminidase (NA)
  NA inhibitory activity IC50: - (key: -: Inhibitory effect on the NA was less than 50%.)
MDCK cells
  CC50: 67.9 ± 13.1 µM
[1]
  Matrix protein mRNA transcription (normalized to GAPDH): stronger inhibitory effect
[2]
  Post-treatment SI (selective index; CC50mean/IC50mean): 2.2
  Simultaneous treatment SI (selective index; CC50mean/IC50mean): 2.3
[2]; read-out: Post-treatment IC50
  IC50: 31.4 ± 2.1 µM
[2]; [7]
  IC50: 28.6 ± 4.3 µM
